Data from patent publication US10167262B2, “Herbicidal substituted 3-arylpyrazoles” (FMC CORPORATION, priority 2014, dated 2019).

How the values were obtained:
Assay in all cases: Test E pre-/postemergence greenhouse test, plant response rating 0-100
Assay type in all cases: in vivo
soybean (Glycine max) = conditions: Glycine max, post-emergence, Postemergence, scale 0 to 100
Excerpt: (§1) Seeds of plant species selected from corn (Zea mays), soybean (Glycine max), velvetleaf (Abutilon theophrasti), lambsquarters (Chenopodium album), wild poinsettia (Euphorbia heterophylla), palmer pigweed (Amaranthus palmeri), waterhemp (common waterhemp, Amaranthus rudis), surinam grass (Brachiaria decumbens), large (Lg) crabgrass (Digitaria sanguinalis), Brazilian crabgrass (Digitaria horizontalis), fall panicum (Panicum dichotomiflorum), giant foxtail (Setaria faberii), green foxtail (Setaria viridis), goosegrass (Eleusine indica), johnsongrass (Sorghum halepense), ragweed (common ragweed, Ambrosia elatior), barnyardgrass (Echinochloa crus-galli), sandbur (southern sandbur, Cenchrus echinatus), arrowleaf sida (Sida rhombifolia), Italian ryegrass (Lolium multiflorum), dayflower (Virginia (VA) dayflower, Commelina virginica), field bindweed (Convolvulus arvensis), morningglory (Ipomoea coccinea), nightshade (eastern black nightshade, Solanum ptycanthum), kochia (Kochia scoparia), yellow nutsedge (Cyperus esculentus), smartweed (ladysthumb smartweed, Polygonum persicaria), cocklebur (common cocklebur, Xanthium strumarium), and hairy beggarticks (Bidens pilosa), were planted into a silt loam soil and treated preemergence with test chemicals formulated in a non-phytotoxic solvent mixture which included a surfactant.
(§2) At the same time, plants from these crop and weed species and also waterhemp_RES1, (ALS & Triazine resistant common waterhemp, Amaranthus rudis), and waterhemp_RES2, (ALS & HPPD resistant common waterhemp, Amaranthus rudis) were planted in pots containing Redi-Earth® planting medium (Scotts Company, 14111 Scottslawn Road, Marysville, Ohio 43041) comprising spaghnum peat moss, vermiculite, wetting agent and starter nutrients were treated with postemergence applications of test chemicals formulated in the same manner. Plants ranged in height from 2 to 18 cm for postemergence treatments (1- to 4-leaf stage).
(§3) Treated plants and controls were maintained in a greenhouse for 14 to 21 days, after which time all species were compared to controls and visually evaluated. Plant response ratings, summarized in Table E, are based on a scale of 0 to 100 where 0 is no effect and 100 is complete control. A dash (-) response means no test result.

[1] = system: wild poinsettia (Euphorbia heterophylla); conditions: Euphorbia heterophylla, post-emergence, Postemergence, scale 0 to 100, read-out: Plant response rating, Poinsettia, Wild
Excerpt: as §1, §2, §3

corn (Zea mays) = conditions: Zea mays, post-emergence, Postemergence, scale 0 to 100
Excerpt: as §1, §2, §3

[2] = system: waterhemp (common waterhemp, Amaranthus rudis); conditions: Amaranthus tuberculatus, post-emergence, Postemergence, scale 0 to 100
Excerpt: as §1, §2, §3

[3] = system: dayflower (Virginia (VA) dayflower, Commelina virginica); conditions: Commelina virginica, post-emergence, Postemergence, scale 0 to 100
Excerpt: as §1, §2, §3

[4] = system: Brazilian crabgrass (Digitaria horizontalis); conditions: Digitaria horizontalis, post-emergence, Postemergence, scale 0 to 100, read-out: Plant response rating, Crabgrass, Brazil
Excerpt: as §1, §2, §3

[5] = system: fall panicum (Panicum dichotomiflorum); conditions: Panicum dichotomiflorum, post-emergence, Postemergence, scale 0 to 100
Excerpt: as §1, §2, §3

[6] = system: arrowleaf sida (Sida rhombifolia); conditions: Sida rhombifolia, post-emergence, Postemergence
Excerpt: as §1, §2, §3

[7] = system: sandbur (southern sandbur, Cenchrus echinatus); conditions: Cenchrus echinatus, post-emergence, Postemergence, scale 0 to 100
Excerpt: as §1, §2, §3

[8] = system: hairy beggarticks (Bidens pilosa); conditions: Bidens pilosa, post-emergence, Postemergence, scale 0 to 100
Excerpt: as §1, §2, §3

[9] = system: field bindweed (Convolvulus arvensis); conditions: Convolvulus arvensis, post-emergence, Postemergence, scale 0 to 100
Excerpt: as §1, §2, §3

[10] = system: palmer pigweed (Amaranthus palmeri); conditions: Amaranthus palmeri, post-emergence, Postemergence, scale 0 to 100
Excerpt: as §1, §2, §3

CCOC(OCC)(c1ccccc1)c1c[nH]nc1-c1cc(Cl)cc(Cl)c1 [Compound 14, 3-(3,5-dichlorophenyl)-4-(diethoxyphenylmethyl)-1H-pyrazole]
plant injury at 31 g/ha (soybean (Glycine max); 31 g ai/ha): 0%
plant injury at 62 g/ha (soybean (Glycine max); 62 g ai/ha): 0%
plant injury at 125 g/ha (soybean (Glycine max); 125 g ai/ha): 0%
plant injury at 250 g/ha (soybean (Glycine max); 250 g ai/ha): 0%
plant injury at 500 g/ha (soybean (Glycine max); 500 g ai/ha): 0%
pest or weed control at 31 g/ha ([1]; 31 g ai/ha): 0%
pest or weed control at 62 g/ha ([1]; 62 g ai/ha): 0%
pest or weed control at 125 g/ha ([1]; 125 g ai/ha): 0%
pest or weed control at 250 g/ha ([1]; 250 g ai/ha): 10%
pest or weed control at 500 g/ha ([1]; 500 g ai/ha): 5%
Corn plant response rating (crop injury, 0 = no effect, 100 = complete kill) at 31 g/ha (corn (Zea mays); 31 g ai/ha): 0%
Corn plant response rating (crop injury, 0 = no effect, 100 = complete kill) at 62 g/ha (corn (Zea mays); 62 g ai/ha): 0%
Corn plant response rating (crop injury, 0 = no effect, 100 = complete kill) at 125 g/ha (corn (Zea mays); 125 g ai/ha): 0%
Corn plant response rating (crop injury, 0 = no effect, 100 = complete kill) at 250 g/ha (corn (Zea mays); 250 g ai/ha): 0%
Corn plant response rating (crop injury, 0 = no effect, 100 = complete kill) at 500 g/ha (corn (Zea mays); 500 g ai/ha): 0%
pest or weed control at 31 g/ha ([2]; 31 g ai/ha): 90%
pest or weed control at 62 g/ha ([2]; 62 g ai/ha): 95%
pest or weed control at 125 g/ha ([2]; 125 g ai/ha): 98%
pest or weed control at 250 g/ha ([2]; 250 g ai/ha): 100%
pest or weed control at 500 g/ha ([2]; 500 g ai/ha): 100%
pest or weed control at 31 g/ha ([3]; 31 g ai/ha): 0%
pest or weed control at 62 g/ha ([3]; 62 g ai/ha): 0%
pest or weed control at 125 g/ha ([3]; 125 g ai/ha): 0%
pest or weed control at 250 g/ha ([3]; 250 g ai/ha): 0%
pest or weed control at 500 g/ha ([3]; 500 g ai/ha): 0%
pest or weed control at 31 g/ha ([4]; 31 g ai/ha): 0%
pest or weed control at 62 g/ha ([4]; 62 g ai/ha): 0%
pest or weed control at 125 g/ha ([4]; 125 g ai/ha): 0%
pest or weed control at 250 g/ha ([4]; 250 g ai/ha): 0%
pest or weed control at 500 g/ha ([4]; 500 g ai/ha): 0%
pest or weed control at 31 g/ha ([5]; 31 g ai/ha): 0%
pest or weed control at 62 g/ha ([5]; 62 g ai/ha): 0%
pest or weed control at 125 g/ha ([5]; 125 g ai/ha): 0%
pest or weed control at 250 g/ha ([5]; 250 g ai/ha): 0%
pest or weed control at 31 g/ha ([6]; 31 g ai/ha, scale 0 to 100): 80%
pest or weed control at 62 g/ha ([6]; 62 g ai/ha, scale 0 to 100): 90%
pest or weed control at 125 g/ha ([6]; 125 g ai/ha, scale 0 to 100): 90%
pest or weed control at 250 g/ha ([6]; 250 g ai/ha, scale 0 to 100): 90%
pest or weed control at 500 g/ha ([6]; 500 g ai/ha, scale 0 to 100 (0 no effect, 100 complete control)): 95%
pest or weed control at 31 g/ha ([7]; 31 g ai/ha): 0%
pest or weed control at 62 g/ha ([7]; 62 g ai/ha): 0%
pest or weed control at 125 g/ha ([7]; 125 g ai/ha): 0%
pest or weed control at 250 g/ha ([7]; 250 g ai/ha): 0%
pest or weed control at 500 g/ha ([7]; 500 g ai/ha): 0%
pest or weed control at 31 g/ha ([8]; 31 g ai/ha): 80%
pest or weed control at 62 g/ha ([8]; 62 g ai/ha): 90%
pest or weed control at 125 g/ha ([8]; 125 g ai/ha): 95%
pest or weed control at 250 g/ha ([8]; 250 g ai/ha): 95%
pest or weed control at 500 g/ha ([8]; 500 g ai/ha): 98%
pest or weed control at 31 g/ha ([9]; 31 g ai/ha): 0%
pest or weed control at 62 g/ha ([9]; 62 g ai/ha): 0%
pest or weed control at 125 g/ha ([9]; 125 g ai/ha): 0%
pest or weed control at 250 g/ha ([9]; 250 g ai/ha): 0%
pest or weed control at 500 g/ha ([9]; 500 g ai/ha): 0%
pest or weed control at 31 g/ha ([10]; 31 g ai/ha): 80%
pest or weed control at 62 g/ha ([10]; 62 g ai/ha): 90%
pest or weed control at 125 g/ha ([10]; 125 g ai/ha): 95%
pest or weed control at 250 g/ha ([10]; 250 g ai/ha): 100%
pest or weed control at 500 g/ha ([10]; 500 g ai/ha): 100%
